# Experimental data as given in US10689391B2, “Isoxazole analogs as FXR agonists and methods of use thereof” (Enanta Pharmaceuticals, Inc., priority 2017, dated 2020).
# Target: T1, human FXR (NR1H4) (Homo sapiens, UniProt Q96RI1)
# T1 construct: host or cells: CHO (Chinese hamster ovary) reporter cells
# T1 sequence (Q96RI1 1-486): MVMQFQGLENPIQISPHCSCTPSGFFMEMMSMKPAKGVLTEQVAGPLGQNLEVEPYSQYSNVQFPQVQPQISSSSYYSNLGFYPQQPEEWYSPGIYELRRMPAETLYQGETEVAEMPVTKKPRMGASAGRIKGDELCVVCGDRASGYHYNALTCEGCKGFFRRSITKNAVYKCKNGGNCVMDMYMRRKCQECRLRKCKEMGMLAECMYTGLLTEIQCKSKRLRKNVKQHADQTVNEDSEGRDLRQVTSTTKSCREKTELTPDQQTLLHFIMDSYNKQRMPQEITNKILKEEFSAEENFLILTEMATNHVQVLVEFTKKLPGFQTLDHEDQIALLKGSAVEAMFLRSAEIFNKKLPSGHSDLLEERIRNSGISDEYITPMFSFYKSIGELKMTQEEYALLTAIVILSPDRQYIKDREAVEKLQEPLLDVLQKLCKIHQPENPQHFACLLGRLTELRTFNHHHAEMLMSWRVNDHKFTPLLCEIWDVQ
# Assay: Human FXR (NR1H4) Assay (Gal4 promoter driven luciferase reporter, Indigo Bioscience kit IB00601); on Efficacy (%): normalized to CDCA set as 100%
# Format: cell-based
# Details: for EC50: CHO reporter cells expressing human NR1H4, luciferase, 22 hours incubation, potency ranges; for Emax: read-out: Efficacy (%)
# Source text: Human FXR (NR1H4) Assay Determination of a ligand mediated Gal4 promoter driven transactivation to quantify ligand binding mediated activation of FXR. FXR Reporter Assay kit purchased from Indigo Bioscience (Catalogue number: IB00601) to determine the potency and efficacy of compound developed by Enanta that can induce FXR activation. The principle application of this reporter assay system is to quantify functional activity of human FXR. The assay utilizes non-human mammalian cells, CHO (Chinese hamster ovary) cells engineered to express human NR1H4 protein (referred to as FXR). Reporter cells also incorporate the cDNA encoding beetle luciferase which catalyzes the substrates and yields photon emission. Luminescence intensity of the reaction is quantified using a plate-reading luminometer, Envision. Reporter Cells include the luciferase reporter gene functionally linked to an FXR responsive promoter. Thus, quantifying changes in luciferase expression in the treated reporter cells provides a sensitive surrogate measure of the changes in FXR activity. […] The assay is according to the manufacturer's instructions. […] Retrieve Reporter Cells from −80° C. storage. Perform a rapid thaw of the frozen cells by transferring a 10 ml volume of 37° C. cell recovery medium into the tube of frozen cells. Recap the tube of Reporter Cells and immediately place it in a 37° C. water bath for 5-10 minutes. Retrieve the tube of Reporter Cell Suspension from the water bath. Sanitize the outside surface of the tube with a 70% alcohol swab, and then transfer it into the cell culture hood. Dispense 90 μl of cell suspension into each well of the 96-well Assay Plate. Transfer the plate into 37° C. incubator, allowing the cells adherent to the bottom of the well. Dilute compounds in Dilution Plate (DP), and administrate to cells at Assay Plate (AP). DMSO content of the samples was kept at 0.2%. Cells were incubated for additional 22 hours before luciferase activities were measured. Thirty minutes before intending to quantify FXR activity, remove Detection Substrate and Detection Buffer from the refrigerator and place them in a low-light area so that they may equilibrate to room temperature. Remove the plate's lid and discard all media contents by ejecting it into an appropriate waste container. Gently tap the inverted plate onto a clean absorbent paper towel to remove residual droplets. Cells will remain tightly adhered to well bottoms. Add 100 μl of luciferase detection reagent to each well of the assay plate. Allow the assay plate to rest at room temperature for at least 5 minutes following the addition of LDR. Set the instrument (Envision) to perform a single 5 second “plate shake” prior to reading the first assay well. Read time may be 0.5 second (500 mSec) per well.
EC50,Emax,SMILES
200 to 1000 nM,33.5%,"CC(C)Oc1cc(C(=O)NS(=O)(=O)C2CC2)cc2sc(O[C@@H]3CO[C@H]4[C@@H]3OC[C@@H]4OCc3c(-c4c(Cl)cccc4Cl)noc3C3CC3)nc12 [Example 3, 2-(((3R,3aR,6S,6aR)-6-((5-cyclopropyl-3-(2,6-dichlorophenyl)isoxazol-4-yl)methoxy)hexahydrofuro[3,2-b]furan-3-yl)oxy)-N-(cyclopropylsulfonyl)-4-isopropoxybenzo[d]thiazole-6-carboxamide]"
200 to 1000 nM,40%,"O=C(O)c1ccc2nc(O[C@@H]3CO[C@H]4[C@@H]3OC[C@@H]4OCc3c(-c4c(Cl)cccc4Cl)noc3C3CC3)sc2c1 [Example 4, 2-(((3R,3aR,6S,6aR)-6-((5-cyclopropyl-3-(2,6-dichlorophenyl)isoxazol-4-yl)methoxy)hexahydrofuro[3,2-b]furan-3-yl)oxy)benzo[d]thiazole-6-carboxylic acid]"
30 to 200 nM,55%,"O=C(O)c1cc(F)c2nc(O[C@@H]3CO[C@H]4[C@@H]3OC[C@H]4OCc3c(-c4c(Cl)cccc4Cl)noc3C3CC3)sc2c1 [Example 5, 2-(((3R,3aR,6R,6aR)-6-((5-cyclopropyl-3-(2,6-dichlorophenyl)isoxazol-4-yl)methoxy)hexahydrofuro[3,2-b]furan-3-yl)oxy)-4-fluorobenzo[d]thiazole-6-carboxylic acid]"
30 to 200 nM,56%,O=C(O)c1cc(F)c2nc(O[C@@H]3CO[C@H]4[C@@H]3OC[C@H]4OCc3c(-c4ccccc4OC(F)(F)F)noc3C3CC3)sc2c1 [Example 6]
200 to 1000 nM,20%,"CC1(S(=O)(=O)NC(=O)c2ccc3nc(O[C@@H]4CO[C@H]5[C@@H]4OC[C@H]5OCc4c(-c5c(Cl)cccc5Cl)noc4C4CC4)sc3c2)CC1 [Example 8, 2-(((3R,3aR,6R,6aR)-6-((5-cyclopropyl-3-(2,6-dichlorophenyl)isoxazol-4-yl)methoxy)hexa hydrofuro[3,2-b]furan-3-yl)oxy)-N-((1-methylcyclopropyl)sulfonyl)benzo-[d]thiazole-6-carboxamide]"
200 to 1000 nM,5.5%,O=C(NS(=O)(=O)C1CC1)c1ccc2nc(O[C@@H]3CO[C@H]4[C@@H]3OC[C@H]4OCc3c(-c4c(Cl)cccc4Cl)noc3C3CC3)sc2c1 [Example 9]
< 30 nM,103%,CC(C)Oc1cc(C(=O)NS(=O)(=O)N2CCCC2)cc2sc(O[C@@H]3CO[C@H]4[C@@H]3OC[C@H]4OCc3c(-c4c(Cl)cccc4Cl)noc3C3CC3)nc12 [Example 10]
30 to 200 nM,57%,CC(C)Oc1cc(C(=O)NS(=O)(=O)C2CC2)cc2sc(O[C@@H]3CO[C@H]4[C@@H]3OC[C@H]4OCc3c(-c4c(Cl)cccc4Cl)noc3C3CC3)nc12 [Example 11]
30 to 200 nM,70%,CC(C)Oc1cc(C(=O)NS(=O)(=O)C2(C)CC2)cc2sc(O[C@@H]3CO[C@H]4[C@@H]3OC[C@H]4OCc3c(-c4c(Cl)cccc4Cl)noc3C3CC3)nc12 [Example 12]
< 30 nM,96.5%,CC(C)Oc1cc(C(=O)NS(=O)(=O)N2CCCCC2)cc2sc(O[C@@H]3CO[C@H]4[C@@H]3OC[C@H]4OCc3c(-c4c(Cl)cccc4Cl)noc3C3CC3)nc12 [Example 13]
30 to 200 nM,67.5%,O=C(O)c1ccc2nc(O[C@@H]3CO[C@H]4[C@@H]3OC[C@H]4OCc3c(-c4c(Cl)cccc4Cl)noc3C3CC3)sc2c1 [Example 14]
30 to 200 nM,85%,O=C(O)c1ccc2nc(O[C@@H]3CO[C@H]4[C@@H]3OC[C@H]4OCc3c(-c4c(Cl)cccc4Cl)noc3C3CC3)ccc2c1 [Example 16]
> 1000 nM,9%,CC(C)Oc1cc(C(=O)O)cc2sc([C@@]3(O)CO[C@@H]4[C@H](OCc5c(-c6c(Cl)cccc6Cl)noc5C5CC5)CO[C@@H]43)nc12 [Example 17]
200 to 1000 nM,45%,CC(C)Oc1cc(C(=O)O)cc2sc([C@]3(F)CO[C@@H]4[C@H](OCc5c(-c6c(Cl)cccc6Cl)noc5C5CC5)CO[C@@H]43)nc12 [Example 18]
200 to 1000 nM,82.3%,CC(C)Oc1cc(C(=O)O)cc2sc(N[C@@H]3CO[C@H]4[C@@H]3OC[C@H]4OCc3c(-c4c(Cl)cccc4Cl)noc3C3CC3)nc12 [Example 19]
200 to 1000 nM,44%,"CC(C)Oc1cc(C(=O)O)cc2sc(N3CCN4C[C@@H](OCc5c(-c6c(Cl)cccc6Cl)noc5C5CC5)C[C@@H]4C3)nc12 [Example 20, 2-((7S,8aR)-7-((5-cyclopropyl-3-(2,6-dichlorophenyl)isoxazol-4-yl)methoxy)hexahydropyrrolo[1,2-a]pyrazin-2(1H)-yl)-4-isopropoxybenzo[d]thiazole-6-carboxylic acid]"
30 to 200 nM,72%,CC(C)Oc1cc(C(=O)O)cc2sc(N3CCN4C[C@H](OCc5c(-c6c(Cl)cccc6Cl)noc5C5CC5)C[C@H]4C3)nc12 [Example 21]
30 to 200 nM,82%,"CC(C)Oc1cc(C(=O)O)cc2sc(N3CCN4C[C@H](OCc5c(-c6c(Cl)cccc6Cl)noc5C5CC5)C[C@@H]4C3)nc12 [Example 22, 2-((7R,8aR)-7-((5-cyclopropyl-3-(2,6-dichlorophenyl)isoxazol-4-yl)methoxy)hexahydropyrrolo[1,2-a]pyrazin-2(1H)-yl)-4-isopropoxybenzo[d]thiazole-6-carboxylic acid]"
< 30 nM,103%,CC(C)Oc1cc(C(=O)O)cc2sc(O[C@@H]3CO[C@H]4[C@@H]3OC[C@H]4OCc3c(-c4ccccc4OC(F)(F)F)noc3C3CC3)nc12 [Example 23]
30 to 200 nM,78%,CC(C)Oc1cc(C(=O)NS(=O)(=O)C2(C)CC2)cc2sc(O[C@@H]3CO[C@H]4[C@@H]3OC[C@H]4OCc3c(-c4ccccc4OC(F)(F)F)noc3C3CC3)nc12 [Example 24]
30 to 200 nM,66%,CC(C)Oc1cc(C(=O)NS(=O)(=O)C2CC2)cc2sc(O[C@@H]3CO[C@H]4[C@@H]3OC[C@H]4OCc3c(-c4ccccc4OC(F)(F)F)noc3C3CC3)nc12 [Example 25]
200 to 1000 nM,7%,CC(C)Oc1cc(C(=O)O)cc2sc(N3C[C@H]4[C@@H](OCc5c(-c6c(Cl)cccc6Cl)noc5C5CC5)CO[C@H]4C3)nc12 [Example 26]
200 to 1000 nM,57%,CC(C)Oc1cc(C(=O)O)cc2sc(N3C[C@H]4C[C@@H](NCc5c(-c6c(Cl)cccc6Cl)noc5C5CC5)C[C@H]4C3)nc12 [Example 28]
> 1000 nM,21%,CC(C)Oc1cc(C(=O)O)cc2sc(N3CCN4C(=O)[C@@H](OCc5c(-c6c(Cl)cccc6Cl)noc5C5CC5)C[C@@H]4C3)nc12 [Example 29]
30 to 200 nM,70%,CC(C)Oc1cc(C(=O)O)cc2sc(N3CCN4C(=O)[C@H](OCc5c(-c6c(Cl)cccc6Cl)noc5C5CC5)C[C@H]4C3)nc12 [Example 30]
30 to 200 nM,110%,CC(C)Oc1cc(C(=O)O)cc2sc(N3CCN4C(=O)[C@@H](OCc5c(-c6c(Cl)cccc6Cl)noc5C5CC5)C[C@H]4C3)nc12 [Example 31]
